The target of series [1] is T1, Tyr from mushrooms (Agaricus bisporus, UniProt C7FF04). The series is described as follows: Kinetic analysis of the inhibition of tyrosinase (Lineweaver-Burk, Dixon, [L-tyrosine]/V vs [I] plots). The format is biochemical, mushroom. The note with it: for Ki: Dixon plots; for character of inhibition: Lineweaver–Burk plots; for IC50: plots of [L-tyrosine]/V vs [I]. Here is the method: Therefore, these compounds were subsequently subjected to detailed kinetic studies to evaluate inhibition parameters. […] Dixon plots (Figure 7) were used in evaluating the KI values, while the plots of [L-tyrosine]/V vs. [I] (Figure 8), were employed to determine IC50Tyr[50]. [I] represents the concentration of the inhibitor. Rates were monitored spectrophotometrically by detecting changes in absorbance at 492 nm.
Solutions containing 80 µL of 0.625, 1.25, or 2.5 mM L-tyrosine and 50 µL of 20, 100, or 200 µM inhibitor were added to a 96-well plate. Then, solution containing 70 µL of Tyr (10 U) was added and the initial rate of dopachrome formation was determined through detecting the increase in absorbance at the wavelength of 492 nm (Δ492/min). […] In order to determine the inhibition constants KI the Dixon plots were constructed, whereas the plots of [L-tyrosine]/V vs. inhibitor concentration [I] were used for IC50Tyr evaluation. The results from three experiments are shown.

Series [2] has as its target T1, Tyr from mushrooms. In words: Inhibition of tyrosinase activity assay (screening at 25 µM). Format: biochemical, mushroom. The note with it: at 25 µM compound, L-tyrosine substrate, 10 U Tyr, 30 min. Here is the method:
In our study, we used Tyr from mushrooms (T3824, Sigma) for all experiments. All compound dilutions, L-tyrosine a Tyr substrate, and Tyr were prepared in 50 mM phosphate buffer (pH 6.5). […] 100% Tyr activity we used for the sample without addition compound/inhibitor. […] The average results from three experiments are shown.

The test system of series [3] is T. gondii RH strain. Set-up: method as in PMID 30744161, PMID 31022878. To be noted: 50% inhibition of T. gondii proliferation in vitro; reported previously, listed for comparison; cited from earlier work.
A further series has as its system Hs27 cell line. The series is described as follows: Cytotoxicity assay (MTT) on human fibroblast Hs27 cells. Format: cell-based. As to the method: (§1) Cell viability assay was performed according to international standards (ISO 10993–5:2009(E)), using tetrazolium salt (MTT, Sigma-Aldrich) and mouse fibroblasts L929 cells. Culture medium RPMI 1640, without phenol red (Biowest, Nuaille, France) supplemented with 10% FBS, 2 mM L-glutamine (Sigma-Aldrich), 100 I.U./mL penicillin, 100 µg/mL streptomycin were used. Briefly, 1 × 10^4/well of L929 cells were placed in 96-well plates and incubated for 24 h at 37 °C and 10% CO2. Afterwards, the old culture medium was replaced with 100 µL of the compound, drug or inhibitor, diluted in culture medium, and the cells treated for 24 h. Additionally, cells were treated with 0.03–4.0% concentration of DMSO as the solvent (data not shown). Then, 50 µL of 1 mg/mL of MTT solution in RPMI 1640 without phenol red was added to each well and incubated for 2 h at 37 °C and 10% CO2. Next, cell culture medium was aspirated carefully and 150 µL of DMSO was added to each well, and the plates were gently mixed. Then, 25 µL 0.1 M glycine buffer (pH 10.5) (Sigma-Aldrich) was added. The optical density at 570 nm using a multi-mode microplate reader SpectraMax® i3 (Syngen, Taipei City, Taiwan) was recorded. The results were expressed as a percentage of viability compared to untreated cells. All experiments were performed in triplicate. Cytotoxicity assay using human fibroblast Hs27 cells was also performed as described above (included in Supplementary Material).

Series [4] relates to T. gondii tachyzoites RH-GFP strain. The series is described as follows: Influence of compounds during Toxoplasma growth, assay B (compounds present 24 h after penetration). The format is cell-based, Toxoplasma gondii. To be noted: 3 h infection without compound, then compound at IC50Tg for 24 h, Hs27 cells, vs untreated cells.
Series [5] shares this test system. The series is described as follows: Influence of compounds during Toxoplasma growth, assay A (compounds present only during penetration). The format is cell-based, Toxoplasma gondii. To be noted: compound at IC50Tg for 3 h during penetration, then 24 h free medium, Hs27 cells, vs untreated cells.
The subject of series [6] is T. gondii RH strain. The series is described as follows: Antiparasitic assay: T. gondii RH proliferation in Hs27 cells, [3H]uracil incorporation. The format is cell-based, Toxoplasma gondii.
The test system of a further series is Toxoplasma gondii. The note with it: Toxoplasma gondii proliferation; cited from earlier work.
The next series has as its system L929 cells. In words: Cell viability assay (MTT, ISO 10993-5) on L929 mouse fibroblasts. The format is cell-based. The note with it: 24 h, concentration for 30% inhibition of cell proliferation.
Source text: First, we evaluated the cytotoxic effects of 1b–9b, which is necessary prior to measuring anti-Toxoplasma and Tyr inhibition in order to exclude cytotoxic compounds. […] Cytotoxicity was estimated using mouse fibroblast (L929) cells line via MTT assay, according to the international standards ISO 10993–5:2009(E). […] Therefore, the obtained results were expressed as CC30, which was defined as the highest concentration of the compound that causes 30% damage of cells and was considered according to ISO as non-toxic.
The L929 mouse fibroblast (ATTC® CCL-1™, Manassas, VA) was routinely maintained in RPMI 1640 media (R8758, Sigma-Aldrich, Suffolk, UK), supplemented with 10% foetal bovine serum (Foetal Bovine Serum, ATCC® 30–2020™), 100 I.U./mL penicillin and 100 µg/mL streptomycin (Penicillin-Streptomycin Solution ATCC® 30–2300™). Cells were trypsinised (Trypsin-EDTA Solution, 1X ATCC® 30–2101™) twice a week and seeded at a density of 1 × 10^6 per T25 cell culture flask and incubated at 37 °C and 10% CO2 to achieve a confluent monolayer.
as §1

Read-outs that look alike come from different tables or passages of the source.

As a reminder, the Ki is the equilibrium dissociation constant of an inhibitor or competing ligand from its target. One may read the IC50 as the midpoint of a concentration-inhibition curve.

T1 sequence (G1K3P4 entry or part of it): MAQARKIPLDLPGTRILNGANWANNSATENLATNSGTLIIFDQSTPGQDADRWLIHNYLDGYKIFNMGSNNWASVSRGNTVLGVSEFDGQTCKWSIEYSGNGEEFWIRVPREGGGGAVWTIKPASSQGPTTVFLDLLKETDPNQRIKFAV
T1 sequence (C7FF04 1-392): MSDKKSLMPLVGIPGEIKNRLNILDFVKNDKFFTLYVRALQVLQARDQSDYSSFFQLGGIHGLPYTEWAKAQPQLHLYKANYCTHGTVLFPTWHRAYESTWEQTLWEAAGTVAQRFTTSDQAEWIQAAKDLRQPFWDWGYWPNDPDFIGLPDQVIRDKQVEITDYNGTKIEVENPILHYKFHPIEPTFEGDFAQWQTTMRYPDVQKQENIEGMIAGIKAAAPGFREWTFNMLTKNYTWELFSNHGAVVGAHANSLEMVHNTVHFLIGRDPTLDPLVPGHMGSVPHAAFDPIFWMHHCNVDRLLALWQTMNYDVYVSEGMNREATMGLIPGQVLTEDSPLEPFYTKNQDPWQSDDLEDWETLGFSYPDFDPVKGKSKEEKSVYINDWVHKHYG

For `Cc1nc[nH]c1C(=O)NNC(=S)Nc1ccc([N+](=O)[O-])cc1` [Compound 2a], at Tyr from mushrooms [1], affinity was put at a Ki of 9.35 µM, the character of inhibition result is reported as “mixed character of inhibition” and the IC50 was determined as 38.3 µM. The compound further had a Tyrosinase inhibition on Tyr from mushrooms [2] of 46.4 ± 3.6%. Further, the IC50 with T. gondii RH strain [3] is 67.5 µM. In the series on Hs27 cell line, this compound registered a CC30 of 697.67 µM. In addition, in series [4], the “number of tachyzoites per PV” value is listed as “significant reduction” and the “percentage of infected cells” value is reported as “not observable”. Besides, in [5], the “number of infected cells (infection index)” value is recorded as “significant reduction” and the “number of tachyzoites per PV” value is recorded as “significant reduction”.
In the case of `Cc1nc[nH]c1C(=O)NNC(=S)Nc1cccc(I)c1` [Compound 6a], on Tyr from mushrooms [1], the inhibitory constant (Ki) stood at 12.4 µM, the character of inhibition entry is given as “mixed character of inhibition” and half-maximal inhibition (IC50) required 37.4 µM. The compound also came in with a Tyrosinase inhibition at Tyr from mushrooms [2] of 48.9 ± 3.0%. The IC50 in the series on T. gondii RH strain [3] was 25.7 µM. Moreover, the CC30 in the series with Hs27 cell line is 209.45 µM. For the same compound, in series [4], the “number of tachyzoites per PV” value is recorded as “significant reduction” and the “percentage of infected cells” value is listed as “not observable”. In addition, in series [5], the “number of infected cells (infection index)” value was “significant reduction” and the “number of tachyzoites per PV” value is recorded as “significant reduction”.
For the compound `COc1cc(Cc2cnc(N)nc2N)cc(OC)c1OC` [Trimethoprim (TRI), Trimethoprim, reference compound], the IC50 in the series with T. gondii RH strain [6] (Toxoplasma gondii, HS27) is 50.9 µM; with Toxoplasma gondii, 50.9 µM. For the same compound, the “SR (selectivity ratio)” value in the series with T. gondii RH strain [6] (ratio of CC30 (L929) to IC50Tg) came out at 1.20. Further, in the series on L929 cells, the CC30 was 61.25 µM.
Take `Nc1ccc(S(=O)(=O)Nc2ncccn2)cc1` [sulfadiazine]: the IC50 with Toxoplasma gondii was about 8500 µM.

The record behind these values is publication PMC8174488, “4-Arylthiosemicarbazide derivatives as a new class of tyrosinase inhibitors and anti-Toxoplasma gondii agents” (Journal of Enzyme Inhibition and Medicinal Chemistry, 2021).
